The text below walks through data of patent US20110034378A1, “Pharmaceutical Combinations Comprising Specified Age Breaker and Further Drugs, I.A. Antihypertensive Drugs, Antidiabetic Drugs Etc” (priority 2008, published 2011).

The subject of the experiment is obese Zucker spontaneously hypertensive fatty rats (Ob-ZSF1). Nature of the experiment: Effect of compound 27 on diabetic cardiomyopathy and nephropathy in Ob-ZSF1 rats. The class given is in vivo, rat. On the procedure: Aim: The aim of this study was to study the effect of compound 27 on diabetic cardiomyopathy and nephropathy in obese Zucker spontaneously hypertensive fatty rats (Ob-ZSF1), an animal model of diabetes with progressive cardiac and renal dysfunction.
Method: Male Ob-ZSF1 rats were implanted with telemetry transmitters. At the age of 3 months, rats were divided into two treatment groups, compound 27, 9 mg/kg ip bid and 27 mg/kg ip, bid and a control group to which vehicle was administered until study termination at 34 weeks. 0.5% salt was added in drinking water from […] of treatment for 6 weeks in order to accelerate the vasculopathy. At fixed predetermined time intervals, blood pressure, urine albumin and creatinine were monitored during the study. Terminal measurement of cardiac function was performed in the same animals using Millar Pressure Volume (P-V) System. PV loops were captured to establish cardiac functional parameters and differences in end systolic pressure volume relationship (ESPVR) and end diastolic pressure volume relationship (EDPVR) at different preloads. Heart and kidney were collected from same set of animals at termination for gross and microscopic histopathological examination and for gene expression studies.

Where [1] appears, read: 9 and 27 mg/kg ip bid, terminal Millar P-V measurement, vs vehicle control.
[2] abbreviates: longitudinally over time, compared to control.
The mark [3] stands for this setting: persistent severe hyperglycemia.

Consider `CS(=O)(=O)NNC(=O)c1ccc[n+](CC(=O)c2cccs2)c1.[Cl-]` [compound 27, 1-(2-thien-2′-yl-2-oxoethyl)-3-(methanesulfonyl hydrazinocarbonyl)pyridinium chloride], for which, under “27 mg/kg group”, the “Relative heart wet weight” value was “significantly lesser”. Further, the “damage to cardiomyocytes, microscopic examination” value (27 mg/kg group, compared to the control group) was “less severe damage”. Further, the cardiac output result (9 and 27 mg/kg ip bid, terminal Millar P-V measurement at 34 weeks, vs vehicle control) is “significant improvement”. For the same compound, under setting [1], the diastolic relaxation entry was “more efficient”, the systolic contractile function entry is “better” and the ventricular compliance entry was “improved”. Moreover, the “peripheral resistance (afterload)” value (9 and 27 mg/kg ip bid, vs vehicle control) is “significant reduction”. The “renal pathology observed microscopically” value (compared to control) is given as “less severe”. In addition, under “compound 27 treated groups”, the “Inflammatory cytokine Interleukin-6 (IL-6)” value is recorded as “reduced significantly”. Moreover, where the note is “higher dose group, compared to control”, the Renal function entry is “distinct improvement”. Under setting [2], the “Percent increase from baseline for albumin to creatinine ratio” value is on record as “significantly reduced”, the “Percent increase from baseline for serial creatinine excretion” value is given as “significantly reduced” and the “Percent increase from baseline for urinary albumin excretion” value is given as “significantly reduced”. For the same compound, the “Brain natriuretic peptide (BNP) expression” value (marker of cardiac failure, compared to control animals) was “reduced”. Moreover, under setting [3], the “cardiac function (conclusion)” value was “clearly preserved” and the “renal dysfunction (conclusion)” value was “reduced the severity”. In addition, the BP entry (telemetry, compound 27 treated animals) is “reduction”.
